Patent publication US12377066B2, “Treatment of diseases associated with biliary system destruction” (Assistance Publique-Hopitaux de Paris, priority 2018, dated 2025)
“Also recorded” adds a separate entry of the source.

Tests used:
[1] = test system: PPARα; assay type: in vivo; conditions: Vps15 LKO mice, two weeks
Protocol: All animals used in the study were fed ad libitum standard chow diet (Teklad global protein diet; 20% protein, 75% carbohydrate, 5% fat) and kept under 12 h/12 h (8 am/8 pm) light on/off cycle. Animals were sacrificed between 2-4 pm unless indicated. […] Plasmatic TG, Billirubin, Hydroxybutyrate, AST and ALAT activities were measured enzymatically using Olympus AU 400 apparatus.
Total RNA was isolated from liver tissue using RNAeasy Lipid Tissue Mini Kit (Qiagen). Single-strand complementary DNA was synthesized from 1 μg of total RNA using 125 ng of random hexamer primers and SuperScript II (Life Technologies). RT-qPCR was performed on MX3005P instrument (Agilent) using a Brilliant III Ultra-Fast QPCR Master Mix (Agilent). The relative amounts of the mRNAs studied were determined by means of the 2^−ΔΔCT method, with pinin, S18, cyclophilin, eIF2α, HUS, Ubiquitin as reference genes for studies in mice and pinin for studies in human patient samples.

[2] = test system: Vps15 LKO mice; assay: Targeted metabolomics of acyl-carnitine fatty acid species in liver tissue of treated mice; assay type: in vivo; conditions: two weeks
Source text: (§1) The Vsp15 conditional mutant mouse line was established at the MCI/ICS (Mouse Clinical Institute—Institute Clinique de la Souris, Illkirch, France) as described (Nemazanyy, I. et al. Defects of Vps15 in skeletal muscles lead to autophagic vacuolar myopathy and lysosomal disease. EMBO Mol. Med. (2013). Liver specific Vps15 knockout mouse line was generated as described (Nemazanyy I et al., Class III PI3K regulates organismal glucose homeostasis by providing negative feedback on hepatic insulin signalling. Nat Commun. 2015 Sep. 21; 6:8283.). Mice were housed in specific pathogen-free conditions. Male mice (5-8-week-old) were used for the experimentation. Mice were randomly allocated to experimental groups and at least three animals were used for each condition (as indicated in figure legends) to ensure statistics analyses. Animal numbers were chosen to reflect the expected magnitude of response that takes into account the variability observed in previous experiments. All animal studies were approved by the Direction Départementale des Services Vétérinaires, Prefecture de Police, Paris, France (authorization number 75-1313) and the ethical committee of Paris Descartes University (17-052).
(§2) All animals used in the study were fed ad libitum standard chow diet (Teklad global protein diet; 20% protein, 75% carbohydrate, 5% fat) and kept under 12 h/12 h (8 am/8 pm) light on/off cycle. Animals were sacrificed between 2-4 pm unless indicated. […] For 5-bromo-2′deoxyuridine (BrdU) incorporation, mice were treated with BrdU (3 mg/ml, Sigma-Aldrich) dissolved in drinking water for 3 days before sacrifice. […]. For immunohistochemical analysis liver tissue was fixed overnight in phosphate-buffered 10% formalin and embedded in paraffin. […] sections were cut and processed either for staining with eosin/hematoxylin, Sirius Red or for immunohistochemical analyses. Plasmatic TG, Billirubin, Hydroxybutyrate, AST and ALAT activities were measured enzymatically using Olympus AU 400 apparatus.
Targeted metabolomics analyses were performed on liver tissue extracts obtained with solution of 50% methanol, 30% ACN, and 20% water. The volume of extraction solution added was calculated from weight of powdered tissue (60 mg/ml). After addition of extraction solution, samples were vortexed for 5 min at 4° C., and then centrifuged at 16,000×g for 15 min at 4° C. The supernatants were collected and analysed by liquid chromatography-mass spectrometry using SeQuant ZIC-pHilic column (Merck) for the liquid chromatography separation. Mobile phase A consisted of 20 mM ammonium carbonate plus 0.1% ammonia hydroxide in water. Mobile phase B consisted of ACN. The flow rate was kept at […], and the gradient was 0 min, 80% of B; 30 min, 20% of B; 31 min, 80% of B; and 45 min, 80% of B. The mass spectrometer (QExactive Orbitrap, Thermo Fisher Scientific) was operated in a polarity switching mode and metabolites were identified using TraceFinder Software (Thermo Fisher Scientific). For analyses, metabolomics data were normalized using the median normalization method. MetaboAnalyst 4.0 software was used for heatmaps generation. The algorithm for heatmap clustering was based on the Pearson distance measure for similarity and the Ward linkage method for biotype clustering.

[3] = test system: Vps15 LKO mice; assay: Histological analyses of liver tissue (hematoxylin/eosin, Sirius Red) in treated control and Vps15 LKO mice; assay type: in vivo; conditions: two weeks
Source text: as §1, §2
For immunohistochemical analysis, liver tissue was fixed overnight in phosphate-buffered 10% formalin and embedded in paraffin. 4 μm sections were cut and processed either for staining with eosin/hematoxylin or for immunohistochemical analyses. Post-staining analyses were performed on digitalized with the NanoZoomer S210 (Hamamatsu) liver tissue slices. Immunohistochemistry of liver tissue sections was performed using anti-p62 (Abnova), anti-TROMA-III-s (DSHB), anti-cytokeratin (AbCyst) or with anti-Lamp1 (Abcam) antibodies.

[4] = test system: Vps15 LKO mice; assay: Immunoblot analyses of total protein liver extracts (Lamp1, Lamp2, p62, LC3, FABP1) of treated mice; assay type: in vivo; conditions: two weeks
Source text: as §1, §2
To prepare protein extract for immunoblot analysis, liver tissue was homogenized in lysis buffer containing 20 mM Tris-HCl (pH 8.0), 5% glycerol, 138 mM NaCl, 2.7 mM KCl, 1% NP-40, 20 mM NaF, 5 mM EDTA, 1× protease inhibitors (Roche), 1× PhosphoStop Inhibitors (Roche). Homogenates were spun at 12000×g for 10 min at 4° C. Protein extracts were resolved by SDS-PAGE before transfer onto PVDF membrane followed by incubation with the primary antibodies and HRP-linked secondary antibodies. Immobilon Western Chemiluminescent HRP Substrate (Millipore) was used for the detection. The images were acquired using ChemiDocTouch Imaging System (BioRad) and the quantification performed using ImageJ software.

[5] = test system: Vps15 LKO mice; assay: Plasma biochemical analyses (TG, ALAT, AST) and spleen weight to body weight ratio in treated mice; assay type: in vivo; conditions: two weeks
Source text: as §1, §2

[6] = test system: BA patients; conditions: large clinical use during many years, no controlled studies; cited from earlier work
[7] = Vps15 LKO mice, drug incorporated in food
[8] = Vps15 LKO mice, drug incorporated in food, listed as BEZA
[9] = Vps15 LKO mice, once per day by oral gavage
[10] = Vps15 LKO mice, once per day by oral gavage, listed as FENO
[11] = control mice, fenofibrate incorporated in food

CC(C)(Oc1ccc(CCNC(=O)c2ccc(Cl)cc2)cc1)C(=O)O [bezafibrate, 2-(4-(2-((4-chlorobenzoyl)amino)ethyl)phenoxy)-2-methylpropanoic acid]
PPARα transcriptional activity in liver (transcript levels of PPARα target genes) ([1]; drug incorporated in food (fenofibrate 200 mg/kg or bezafibrate 0.5%)): equally efficient in restoring PPARα transcriptional activity; also recorded: restoration of PPARα function
liver inflammation (transcript levels of TNF1α, IL1β, F4/80) ([1]; drug incorporated in food): effective in reducing the inflammation
fatty acid oxidation in liver (metabolomics) ([2]; drug incorporated in food): marked restoration of fatty acid oxidation
levels of long-chain fatty acid carnitines in liver ([2]; drug incorporated in food): decreased levels of long-chain fatty acid carnitines
levels of short-chain fatty acid carnitines in liver ([2]; drug incorporated in food): increased levels of short-chain fatty acid carnitines
fatty acid oxidation in liver (metabolomics) ([2]; drug incorporated in food, listed as BEZA): sufficient to restore the metabolic activity such as fatty-acid oxidation
hepatocyte volume (histology) [3, 7]: reduce hepatocyte volume
hepatocyte vacuolation (hematoxylin/eosin) [3, 8]: sufficient to decrease hepatocyte vacuolation; also recorded: rescues hepatocyte vacuolation
portal area organization / architecture of intrahepatic biliary system (histology) [3, 8]: improve the portal area organization; also recorded: ameliorates architecture of intrahepatic biliary system
LC3 lipidation (LC3-II form) in liver (immunoblot) [4, 7]: promoted LC3-lipidation
accumulation of Lamp proteins (Lamp1, Lamp2) in liver (immunoblot) [4, 7]: reduced
autophagic clearance in liver [4, 7]: promoted autophagic clearance
p62 protein levels in liver (immunoblot) [4, 7]: reduction of p62 accumulation
protein expression of PPARα target Fabp1 in liver (immunoblot) [4, 7]: equally effective in restoring
LC3 lipidation (LC3-II form) in liver (immunoblot) [4, 8]: increased lipidation of LC3
accumulation of Lamp proteins (Lamp1, Lamp2) in liver (immunoblot) [4, 8]: decreased Lamp1 and p62 protein levels
p62 protein levels in liver (immunoblot) [4, 8]: decreased Lamp1 and p62 protein levels
liver damage: activity of transaminases (ALAT, AST) in plasma [5, 7]: fenofibrate, independently of mode of administration, was more effective in lowering liver damage compared to bezafibrate treatment
spleen hypertrophy (ratio of spleen weight to body weight) [5, 7]: decreasing spleen hypertrophy
triglyceride (TG) levels in plasma [5, 7]: effective in lowering TG levels

CC(C)OC(=O)C(C)(C)Oc1ccc(C(=O)c2ccc(Cl)cc2)cc1 [fenofibrate, 2-{4-[(4-chlorophenyl)carbonyl]phenoxy}-2-méthylpropanoatede propan-2-yle]
fatty acid oxidation in liver (metabolomics) ([2]; once per day by oral gavage): marked restoration of fatty acid oxidation
levels of long-chain fatty acid carnitines in liver ([2]; once per day by oral gavage): decreased levels of long-chain fatty acid carnitines
levels of short-chain fatty acid carnitines in liver ([2]; once per day by oral gavage): increased levels of short-chain fatty acid carnitines
fatty acid oxidation in liver (metabolomics) ([2]; once per day by oral gavage, listed as FENO): sufficient to restore the metabolic activity such as fatty-acid oxidation
hepatocyte vacuolation (hematoxylin/eosin) [3, 7]: significantly decrease hepatocyte vacuolation; also recorded: rescues hepatocyte vacuolation
hepatocyte volume (histology) [3, 7]: reduce hepatocyte volume
inflammatory cell infiltration in liver (histology) [3, 7]: reduce hepatocyte volume and inflammatory cell infiltration
liver fibrosis / collagen deposition (quantification of Sirius Red staining) [3, 7]: lower; also recorded: decreased
portal area organization / architecture of intrahepatic biliary system (histology) [3, 7]: effective in improving the portal area organization; also recorded: ameliorates architecture of biliary system
hepatocyte volume (histology) [3, 9]: reduce hepatocyte volume
hepatocyte vacuolation (hematoxylin/eosin) [3, 10]: sufficient to decrease hepatocyte vacuolation; also recorded: rescues hepatocyte vacuolation
portal area organization / architecture of intrahepatic biliary system (histology) [3, 10]: improve the portal area organization; also recorded: ameliorates architecture of intrahepatic biliary system
hepatocyte hypertrophy (histology) [3, 11]: resulted in hepatocyte hypertrophy
LC3 lipidation (LC3-II form) in liver (immunoblot) [4, 7]: induced an important lipidation of LC3 protein; also recorded: promoted LC3-lipidation
accumulation of Lamp proteins (Lamp1, Lamp2) in liver (immunoblot) [4, 7]: significantly ameliorated; also recorded: significantly reverted
autophagic clearance in liver [4, 7]: promotes autophagic clearance
p62 protein levels in liver (immunoblot) [4, 7]: significantly ameliorated; also recorded: decreased levels of p62 protein
LC3 lipidation (LC3-II form) in liver (immunoblot) [4, 9]: promoted LC3-lipidation
accumulation of Lamp1 protein in liver (immunoblot) [4, 9]: reduced
autophagic clearance in liver [4, 9]: promoted autophagic clearance
p62 protein levels in liver (immunoblot) [4, 9]: reduction of p62 accumulation
protein expression of PPARα target Fabp1 in liver (immunoblot) [4, 9]: equally effective in restoring
LC3 lipidation (LC3-II form) in liver (immunoblot) [4, 10]: increased lipidation of LC3
accumulation of Lamp1 protein in liver (immunoblot) [4, 10]: decreased Lamp1 and p62 protein levels
p62 protein levels in liver (immunoblot) [4, 10]: decreased Lamp1 and p62 protein levels
LC3 lipidation (LC3-II form) in liver (immunoblot) [4, 11]: induced an important lipidation of LC3 protein; also recorded: promoted LC3-lipidation
liver damage: activity of transaminases (ALAT, AST) in plasma [5, 7]: significantly decreased activity of transaminases; also recorded: more effective in lowering liver damage compared to bezafibrate; also recorded: significantly ameliorates liver damage
triglyceride (TG) levels in plasma [5, 7]: resulted in their normalization; also recorded: effective in lowering TG levels; also recorded: beneficial effect in lowering plasmatic triglycerides
triglyceride (TG) levels in plasma [5, 9]: effective in lowering TG levels
triglyceride levels in plasma [5, 11]: effective in lowering triglyceride levels

desoxycholic acid [UDCA]
prognosis of patients (% of liver transplantation or survival) [6]: provided no evidence that it might positively affect prognosis of the patients
